From PubChem BioAssay (NCI)
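The concentration for 50% growth inhibition is given as GI50. TGI denotes the concentration required for complete inhibition of growth.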

Key:
Experiment in all cases: DTP human tumour cell line panel, 384-well format
SN12C renal = tested on: SN12C renal
EKVX NSCLC = tested on: EKVX NSCLC
U251 glioblastoma = tested on: U251 glioblastoma
UO-31 renal = tested on: UO-31 renal
OVCAR-8 ovarian = tested on: OVCAR-8 ovarian
T-47D breast = tested on: T-47D breast
UACC-257 melanoma = tested on: UACC-257 melanoma
HOP-62 NSCLC = tested on: HOP-62 NSCLC
HCT-116 colon = tested on: HCT-116 colon
HT29 colon = tested on: HT29 colon
SF-295 CNS = tested on: SF-295 CNS
HCT-15 colon = tested on: HCT-15 colon
MALME-3M melanoma = tested on: MALME-3M melanoma
NCI-H322M lung = tested on: NCI-H322M lung
HS 578T breast = tested on: HS 578T breast
A498 renal = tested on: A498 renal
SR leukemia = tested on: SR leukemia
LOX IMVI melanoma = tested on: LOX IMVI melanoma
KM12 colon = tested on: KM12 colon
M14 melanoma = tested on: M14 melanoma
SK-MEL-2 melanoma = tested on: SK-MEL-2 melanoma
SNB-75 CNS = tested on: SNB-75 CNS
OVCAR-5 ovarian = tested on: OVCAR-5 ovarian
SK-MEL-5 melanoma = tested on: SK-MEL-5 melanoma
OVCAR-3 ovarian = tested on: OVCAR-3 ovarian
IGROV1 ovarian = tested on: IGROV1 ovarian
OVCAR-4 ovarian = tested on: OVCAR-4 ovarian
PC-3 prostate = tested on: PC-3 prostate
NCI-H522 lung = tested on: NCI-H522 lung
SK-MEL-28 melanoma = tested on: SK-MEL-28 melanoma
SNB-19 CNS = tested on: SNB-19 CNS
UACC-62 melanoma = tested on: UACC-62 melanoma
CCRF-CEM leukemia = tested on: CCRF-CEM leukemia
SF-539 CNS = tested on: SF-539 CNS
CAKI-1 renal = tested on: CAKI-1 renal
RPMI-8226 leukemia = tested on: RPMI-8226 leukemia
MDA-MB-231 breast = tested on: MDA-MB-231 breast
HOP-92 NSCLC = tested on: HOP-92 NSCLC
NCI-H226 lung = tested on: NCI-H226 lung
MDA-MB-435 melanoma = tested on: MDA-MB-435 melanoma
TK-10 renal = tested on: TK-10 renal
MDA-MB-468 breast = tested on: MDA-MB-468 breast
ACHN renal = tested on: ACHN renal
SK-OV-3 ovarian = tested on: SK-OV-3 ovarian
SF-268 CNS = tested on: SF-268 CNS
NCI-H460 NSCLC = tested on: NCI-H460 NSCLC
MCF7 breast = tested on: MCF7 breast

C=CC(=O)Nc1cccc(Oc2nc(Nc3ccc(N4CCN(C)CC4)cc3)nc3ccsc23)c1
GI50 (SN12C renal): 1350 nM | TGI (SN12C renal): 2750 nM | GI50 (EKVX NSCLC): 1310 nM | TGI (EKVX NSCLC): 3840 nM | GI50 (U251 glioblastoma): 1650 nM | TGI (U251 glioblastoma): 3060 nM | GI50 (UO-31 renal): 1390 nM | TGI (UO-31 renal): 2700 nM | GI50 (OVCAR-8 ovarian): 1590 nM | TGI (OVCAR-8 ovarian): 3000 nM | GI50 (T-47D breast): 1500 nM | TGI (T-47D breast): 2840 nM | GI50 (UACC-257 melanoma): 1520 nM | TGI (UACC-257 melanoma): 2870 nM | GI50 (HOP-62 NSCLC): 2000 nM | TGI (HOP-62 NSCLC): 4540 nM | GI50 (HCT-116 colon): 1680 nM | TGI (HCT-116 colon): 3090 nM | GI50 (HT29 colon): 1740 nM | TGI (HT29 colon): 3160 nM | GI50 (SF-295 CNS): 5010 nM | TGI (SF-295 CNS): 15700 nM | GI50 (HCT-15 colon): 1560 nM | TGI (HCT-15 colon): 3030 nM | GI50 (MALME-3M melanoma): 1760 nM | TGI (MALME-3M melanoma): 3160 nM | GI50 (NCI-H322M lung): 902 nM | TGI (NCI-H322M lung): 3350 nM | GI50 (HS 578T breast): 1450 nM | TGI (HS 578T breast): 2800 nM | GI50 (A498 renal): 1220 nM | TGI (A498 renal): 2490 nM | GI50 (SR leukemia): 857 nM | TGI (SR leukemia): 1950 nM | GI50 (LOX IMVI melanoma): 1810 nM | TGI (LOX IMVI melanoma): 3220 nM | GI50 (KM12 colon): 1590 nM | TGI (KM12 colon): 3120 nM | GI50 (M14 melanoma): 1890 nM | TGI (M14 melanoma): 3320 nM | GI50 (SK-MEL-2 melanoma): 1610 nM | TGI (SK-MEL-2 melanoma): 2970 nM | GI50 (SNB-75 CNS): 1350 nM | TGI (SNB-75 CNS): 2740 nM | GI50 (OVCAR-5 ovarian): 2020 nM | TGI (OVCAR-5 ovarian): 5790 nM | GI50 (SK-MEL-5 melanoma): 1840 nM | TGI (SK-MEL-5 melanoma): 3250 nM | GI50 (OVCAR-3 ovarian): 923 nM | TGI (OVCAR-3 ovarian): 2200 nM | GI50 (IGROV1 ovarian): 1060 nM | TGI (IGROV1 ovarian): 2260 nM | GI50 (OVCAR-4 ovarian): 1690 nM | TGI (OVCAR-4 ovarian): 3130 nM | GI50 (PC-3 prostate): 1700 nM | TGI (PC-3 prostate): 3120 nM | GI50 (NCI-H522 lung): 334 nM | TGI (NCI-H522 lung): 1410 nM | GI50 (SK-MEL-28 melanoma): 1740 nM | TGI (SK-MEL-28 melanoma): 3140 nM | GI50 (SNB-19 CNS): 1820 nM | TGI (SNB-19 CNS): 3700 nM | GI50 (UACC-62 melanoma): 1520 nM | TGI (UACC-62 melanoma): 2870 nM | GI50 (CCRF-CEM leukemia): 1500 nM | TGI (CCRF-CEM leukemia): 2840 nM | GI50 (SF-539 CNS): 1750 nM | TGI (SF-539 CNS): 3150 nM | GI50 (CAKI-1 renal): 833 nM | TGI (CAKI-1 renal): 2150 nM | GI50 (RPMI-8226 leukemia): 1460 nM | TGI (RPMI-8226 leukemia): 2780 nM | GI50 (MDA-MB-231 breast): 1700 nM | TGI (MDA-MB-231 breast): 3330 nM | GI50 (HOP-92 NSCLC): 1370 nM | TGI (HOP-92 NSCLC): 2950 nM | GI50 (NCI-H226 lung): 1570 nM | TGI (NCI-H226 lung): 3880 nM | GI50 (MDA-MB-435 melanoma): 1780 nM | TGI (MDA-MB-435 melanoma): 3200 nM | GI50 (TK-10 renal): 957 nM | TGI (TK-10 renal): 2250 nM | GI50 (MDA-MB-468 breast): 191 nM | TGI (MDA-MB-468 breast): 629 nM | GI50 (ACHN renal): 1260 nM | TGI (ACHN renal): 2690 nM | GI50 (SK-OV-3 ovarian): 1570 nM | TGI (SK-OV-3 ovarian): 4190 nM | GI50 (SF-268 CNS): 1840 nM | TGI (SF-268 CNS): 4010 nM | GI50 (NCI-H460 NSCLC): 1620 nM | TGI (NCI-H460 NSCLC): 3030 nM | GI50 (MCF7 breast): 1550 nM | TGI (MCF7 breast): 2960 nM
